Converted amounts (≈) assume the structure as drawn.

Assay [1] concerns Staphylococcus aureus. Kind of assay: Antibacterial activity against Staphylococcus aureus ATCC 25923 after 24 hrs by micro broth dilution assay. The note with it: ATCC 25923, 24 h. In kind it is functional. For orientation: Dilution methods test growth across graded concentrations, often in twofold steps.
The test system of assay [2] is Staphylococcus aureus. The experiment in a line: Antibacterial activity against methicillin-resistant Staphylococcus aureus N315 after 24 hrs by micro broth dilution assay. In kind it is functional. As to conditions: N315, 24 h.
The test system of assay [3] is Bacillus subtilis. The experiment in a line: Antibacterial activity against Bacillus subtilis after 24 hrs by micro broth dilution assay. The class given is functional.
Assay [4] relates to Micrococcus luteus. Kind of assay: Antibacterial activity against Micrococcus luteus ATCC4698 after 24 hrs by micro broth dilution assay. The class given is functional. As to conditions: ATCC4698, 24 h.
The test system of assay [5] is Bacillus. The experiment in a line: Antibacterial activity against Bacillus proteus ATCC 13315 after 24 hrs by micro broth dilution assay. In kind it is functional. The note with it: ATCC 13315, 24 h.
Assay [6] has as its system Escherichia coli. Kind of assay: Antibacterial activity against Escherichia coli DH52 after 24 hrs by micro broth dilution assay. In kind it is functional. As to conditions: DH52, 24 h.
For assay [7], the system named is Pseudomonas aeruginosa. Kind of assay: Antibacterial activity against Pseudomonas aeruginosa after 24 hrs by micro broth dilution assay. The class given is functional.
For assay [8], the system named is Salmonella typhi. The experiment in a line: Antibacterial activity against Bacillus typhi after 24 hrs by micro broth dilution assay. In kind it is functional, Salmonella enterica subsp. enterica serovar Typhi. As to conditions: Salmonella enterica.
Assay [9] deals with Escherichia coli. Kind of assay: Antibacterial activity against Escherichia coli JM109 after 24 hrs by micro broth dilution assay. The note with it: JM109, 24 h. In kind it is functional.
Assay [10] relates to Shigella dysenteriae. The experiment in a line: Antibacterial activity against Shigella dysenteriae after 24 hrs by micro broth dilution assay. The class given is functional.
Assay [11] concerns Candida albicans. The experiment in a line: Antifungal against Candida albicans ATCC 76615 after 24 hrs by two fold serial dilution method. In kind it is functional. As to conditions: ATCC 76615, 24 h.
The test system of assay [12] is Pichia norvegensis. The experiment in a line: Antifungal against Candida mycoderma after 24 hrs by two fold serial dilution method. The class given is functional.
Assay [13] has as its system Cyberlindnera jadinii. Kind of assay: Antifungal against Candida utilis after 24 hrs by two fold serial dilution method. The note with it: Williopsis jadinii. The class given is functional.
For assay [14], the system named is Saccharomyces cerevisiae. Kind of assay: Antifungal against Saccharomyces cerevisiae after 24 hrs by two fold serial dilution method. The class given is functional.
Assay [15] concerns Aspergillus flavus. Kind of assay: Antifungal against Aspergillus flavus after 24 hrs by two fold serial dilution method. In kind it is functional.
Assay [16] deals with Staphylococcus aureus. Kind of assay: Ratio of MBC for Staphylococcus aureus ATCC 25923 to MIC for Staphylococcus aureus ATCC 25923. In kind it is functional.
Assay [17] relates to Staphylococcus aureus. The experiment in a line: Ratio of MBC for methicillin-resistant Staphylococcus aureus N315 to MIC for methicillin-resistant Staphylococcus aureus N315. The class given is functional.
Assay [18] deals with Pseudomonas aeruginosa. Kind of assay: Ratio of MBC for Pseudomonas aeruginosa to MIC for Pseudomonas aeruginosa. In kind it is functional.
The subject of assay [19] is Staphylococcus aureus. The experiment in a line: Antibacterial activity against Staphylococcus aureus ATCC 25923 incubated for 24 hrs followed by plating onto tryptic soy agar medium and measured after 24 hrs. The class given is functional. The note with it: ATCC 25923, 24 h.
In assay [20] the test system is Staphylococcus aureus. The experiment in a line: Antibacterial activity against methicillin-resistant Staphylococcus aureus N315 incubated for 24 hrs followed by plating onto tryptic soy agar medium and measured after 24 hrs. In kind it is functional. The note with it: N315, 24 h.
Assay [21] relates to Pseudomonas aeruginosa. Kind of assay: Antibacterial activity against Pseudomonas aeruginosa incubated for 24 hrs followed by plating onto tryptic soy agar medium and measured after 24 hrs. In kind it is functional.

Turning to `Nc1nc(-c2nc3ccccc3[nH]2)cc(-c2ccc(Cl)cc2Cl)n1`, the minimal inhibitory concentration (MIC) was determined as 8 µg/mL (≈ 22.5 µM) in assay [1]; 8 µg/mL (≈ 22.5 µM) in assay [2]; 8 µg/mL (≈ 22.5 µM) in assay [3]; 1 µg/mL (≈ 2.81 µM) in assay [4]; 1 µg/mL (≈ 2.81 µM) in assay [5]; 16 µg/mL (≈ 44.9 µM) in [6]. The MIC in assay [7] came out at 32 µg/mL (≈ 89.8 µM); in [8], 16 µg/mL (≈ 44.9 µM); in assay [9] it was 64 µg/mL (≈ 180 µM); in [10], 16 µg/mL (≈ 44.9 µM); in assay [11] it was 1 µg/mL (≈ 2.81 µM); in assay [12], 2 µg/mL (≈ 5.61 µM). The values for the minimum inhibitory concentration (MIC) in [13], in assay [14] and in [15] were 2 µg/mL (≈ 5.61 µM), 8 µg/mL (≈ 22.5 µM) and 8 µg/mL (≈ 22.5 µM), respectively. Further, the Ratio was 1 in [16], 2 in assay [17] and 2 in [18]. Further, the minimal bactericidal concentration (MBC) in [19] stood at 8 µg/mL (≈ 22.5 µM); in assay [20] it was 16 µg/mL (≈ 44.9 µM); in assay [21], 64 µg/mL (≈ 180 µM).

`Nc1nc(-c2ccc(Cl)cc2)cc(-c2nc3ccccc3[nH]2)n1`: the MIC is 64 µg/mL (≈ 199 µM) in assay [1]; 128 to 512 µg/mL (≈ 398 to 1590 µM) in assay [2]; 64 µg/mL (≈ 199 µM) in assay [3]; 64 µg/mL (≈ 199 µM) in assay [4]; 8 µg/mL (≈ 24.9 µM) in assay [5]; 128 µg/mL (≈ 398 µM) in assay [6]. The minimum inhibitory concentration (MIC) in [7] was determined as 128 µg/mL (≈ 398 µM); in assay [8] it was 512 µg/mL (≈ 1590 µM); in [9], 32 µg/mL (≈ 99.4 µM); in assay [10], 32 µg/mL (≈ 99.4 µM); in assay [11], 1 µg/mL (≈ 3.11 µM); in assay [12], 512 µg/mL (≈ 1590 µM). The MIC was 2 µg/mL (≈ 6.22 µM) in [13], 512 µg/mL (≈ 1590 µM) in [14] and 4 µg/mL (≈ 12.4 µM) in assay [15]. For the same compound, the Ratio in assay [16] was 4; in assay [17], 2; in [18], 4. Besides, the minimal bactericidal concentration (MBC) is 256 µg/mL (≈ 796 µM) in [19], 256 µg/mL (≈ 796 µM) in assay [20] and 512 µg/mL (≈ 1590 µM) in assay [21].

For the compound `CCCCCCCn1c(-c2cc(-c3ccc(C)cc3)nc(N)n2)nc2ccccc21`, the MIC stood at 512 µg/mL (≈ 1280 µM) in assay [1]; 32 µg/mL (≈ 80.1 µM) in [2]; 512 µg/mL (≈ 1280 µM) in assay [3]; 8 µg/mL (≈ 20 µM) in assay [4]; 256 µg/mL (≈ 641 µM) in assay [5]; 4 µg/mL (≈ 10 µM) in assay [6]. Besides, the MIC in assay [7] was found to be 4 µg/mL (≈ 10 µM); in assay [8] it was 2 µg/mL (≈ 5.01 µM); in assay [9] it was 16 µg/mL (≈ 40 µM); in assay [10] it was 4 µg/mL (≈ 10 µM); in assay [11], 32 µg/mL (≈ 80.1 µM); in assay [12], 512 µg/mL (≈ 1280 µM). Besides, the MIC in assay [13] came to 32 µg/mL (≈ 80.1 µM); in assay [14], 4 µg/mL (≈ 10 µM); in [15], 512 µg/mL (≈ 1280 µM). Further, the Ratio in assay [17] and in assay [18] was 1 in each case. Also, the MBC in assay [19] was more than 512 µg/mL; in [20] it was 32 µg/mL (≈ 80.1 µM); in assay [21] it was 4 µg/mL (≈ 10 µM).

For `CCCCCCCn1c(-c2cc(-c3ccc(Cl)cc3Cl)nc(N)n2)nc2ccccc21`, the MIC in assay [1] worked out at 256 µg/mL (≈ 563 µM); in assay [2], 512 µg/mL (≈ 1130 µM); in assay [3], 256 µg/mL (≈ 563 µM); in assay [4], 16 µg/mL (≈ 35.2 µM); in assay [5], 512 µg/mL (≈ 1130 µM); in [6] it was 32 µg/mL (≈ 70.4 µM). The MIC was 64 µg/mL (≈ 141 µM) in [7]; 32 µg/mL (≈ 70.4 µM) in assay [8]; 512 µg/mL (≈ 1130 µM) in assay [9]; 128 µg/mL (≈ 282 µM) in assay [10]; 4 µg/mL (≈ 8.8 µM) in assay [11]; 256 µg/mL (≈ 563 µM) in [12]. Also, the MIC came out at 128 µg/mL (≈ 282 µM) in assay [13], 128 µg/mL (≈ 282 µM) in assay [14] and 256 µg/mL (≈ 563 µM) in assay [15]. Besides, the Ratio in assay [16] and in assay [18] was 2 throughout. Moreover, the MBC in assay [19] was 512 µg/mL (≈ 1130 µM); in assay [20], more than 512 µg/mL; in [21], 128 µg/mL (≈ 282 µM).

The term MIC denotes the smallest concentration in the dilution series that meets the test's criterion for growth inhibition. Low values mean inhibition by little substance, high ones a need for much substance. By MBC is commonly meant the smallest concentration meeting the test's criterion for killing. Low readings indicate greater bactericidal potency, high ones weaker bactericidal potency.

The values are drawn from ChEMBL document CHEMBL4251572, “Novel aminopyrimidinyl benzimidazoles as potentially antimicrobial agents: Design, synthesis and biological evaluation” (Eur J Med Chem, 2018).
